Measured values published in ChEMBL document CHEMBL3414444, “Antiplasmodial activity: the first proof of inhibition of heme crystallization by marine isonitriles” (Eur J Med Chem, 2015).

Legend:
[1] = test system: Plasmodium falciparum; assay: Antiplasmodial activity against Plasmodium falciparum K1; assay type: functional, organism-based
[2] = test system: Plasmodium falciparum; assay: Antiplasmodial activity against Plasmodium falciparum D6; assay type: functional, organism-based
[3] = Inhibition of beta-hematin formation after 3 to 5 mins by EBHIA assay; assay type: physicochemical
[4] = test system: Plasmodium falciparum; assay: Antiplasmodial activity against Plasmodium falciparum W2; assay type: functional, organism-based
[5] = test system: Plasmodium falciparum; assay: Antiplasmodial activity against Plasmodium falciparum NF54; assay type: functional, organism-based

Structure (SMILES) | IC50 [1] | IC50 [2] | inhibition (INH) [3] | IC50 [4] | IC50 [5]
[C-]#[N+][C@@]1(C)CC[C@H]2[C@H]3[C@@H]4[C@H](C[C@@H](C)[C@@](C)(N=C=O)[C@H]4CC[C@@H]31)C[C@@H]2C | 9 nM |  |  |  | 
[C-]#[N+][C@@]1(C)CC[C@H]2[C@H]3[C@H]4C(=CC(C)(C)C[C@@H]4C[C@@H]2C)CC[C@@H]31 | 24 nM | 84 nM | 26% | 24 nM | 
CC(C)=CCC[C@@H](C)[C@H]1CC[C@](C)(N=C=S)[C@H]2CCC(C)=C[C@H]12 | > 30000 nM |  |  |  | 
[C-]#[N+][C@]1(C)CC[C@H](/C(C)=C\C=C\C(C)C)CC1 |  |  | 62% |  | 
CC1=CC2C(CC1)[C@](C)(N=C=S)CC[C@@H]2C(C)C (stereo partly drawn) | 5700 nM |  | 71% |  | 5700 nM
[C-]#[N+][C@@]1(C)CC[C@H]2[C@H]3[C@@H](C(=C)CC[C@@H]31)[C@@H](C=C(C)C)C[C@@H]2C |  |  | 14% | 423 nM | 
CCN(CC)CCCC(C)Nc1ccnc2cc(Cl)ccc12 (stereo not drawn) [CHLOROQUINE] |  |  | 4% |  | 
